In patent US10772836B2, “Method for producing particles” (RICOH COMPANY, LTD., priority 2016, dated 2020):

Assays:
[1] = Evaluation test for dissolution property in intrapulmonary-environment imitating liquid (Test Example 7); assay type: physicochemical; settings: 37 degrees Celsius, 30 spm
Experimental: Ten milligrams of the pharmaceutical particles were added to 100 mL of an intrapulmonary-environment imitating liquid (0.169 g of magnesium chloride, 5.016 g of sodium chloride, 0.249 g of potassium chloride, 0.059 g of anhydrous sodium sulfate, 0.306 g of calcium chloride dehydrate, 0.794 g of sodium acetate trihydrate, 2.170 g of sodium hydrogen carbonate, 0.080 g of sodium citrate dehydrate, 0.118 g of disodium hydrogen-phosphate, and 0.167 g of dipalmitoylphosphatidylcholine in 1 L of water). […] Thus, the “dissolution property” was evaluated.

[2] = system: blood calcium concentration; assay: Drug efficacy after transpulmonary administration, blood calcium concentration (Test Example 9); assay type: in vivo; settings: male SD rats, transpulmonary 40 micrograms/animal in terms of CALCITONIN, time zero = 100%
Experimental: A powder preparation prepared using the pharmaceutical particles of Example 3 was evaluated for a drug efficacy after transpulmonary administration. The powder preparation was prepared by mixing the pharmaceutical particles of Example 3 with lactose (average particle diameter: 50 micrometers, RESPITOSE, available from DMV Japan) in an amount of 5 times as much as the amount of the pharmaceutical particles. The powder preparation was transpulmonary administrated (40 micrograms/animal in terms of CALCITONIN) to male SD rats (from 6 to 8 week-old, available from Japan SLC, Inc.) and then a blood calcium concentration after the administration was measured over time. As a control group, a simply mixed powder was prepared by molding a mixture of CALCITONIN bulk powder and lactose. The CALCITONIN has a pharmacological action of decreasing the blood calcium concentration. Therefore, the blood calcium concentration was selected as an indicator for evaluating the drug efficacy of the pharmaceutical particles of Example 3. The pharmaceutical particles were transpulmonary administrated by inserting an inhaler (DP-4, available from Ina Research Inc.) into the airway under inhalation anesthesia with isoflurane and feeding compressed air. A time point immediately before the transpulmonary administration was defined as time zero. Change in blood calcium concentration over time was evaluated assuming that a blood calcium concentration at the time zero was 100%. The blood calcium concentration was measured using a METALLOASSAY calcium (Ca) measurement LS kit CPZIII (available from Metallogenics Co., Ltd.).

[3] = Oral absorbability of […], blood drug concentration after oral administration (Test Example 6); assay type: in vivo; settings: rat, plasma, male SD rats, single oral dose 10 mg/kg in terms of […]
Experimental: In order to evaluate an oral absorbability of the pharmaceutical particles produced in Example 2, the pharmaceutical particles of Example 2 and […] bulk powder were orally administrated to male SD rats (from 6 to 8 week-old, available from Japan SLC, Inc.) and then blood drug concentrations were measured over time. Each powder was suspended in water and administrated through a single-dose forced oral administration to the male SD rats at 10 mg/kg in terms of […]. After the oral administration, blood was collected from tail veins over time, transferred to heparinized micro test tubes, and cooled with ice immediately. After the cooling, the blood was rapidly centrifuged to obtain blood plasma. The resultant blood plasma was quantified by an ultra-high performance liquid chromatography (available from Waters) equipped with, as a detector, a single quadrupole mass spectrometer (ACQUITY SQD, available from Waters).

## Calcitonin [Calcitonin bulk powder]
[1]; time 0 hour
  Dissolution amount: 0 µg/mL
[1]; time 0.25 hour
  Dissolution amount: 9.56 ± 0.03 µg/mL
[1]; time 0.5 hour
  Dissolution amount: 9.88 ± 0.13 µg/mL
[1]; time 1 hour
  Dissolution amount: 9.68 ± 0.20 µg/mL
[1]; time 2 hour
  Dissolution amount: 9.09 ± 0.04 µg/mL
[1]; time 4 hour
  Dissolution amount: 9.01 ± 0.44 µg/mL
[1]; time 6 hour
  Dissolution amount: 9.39 ± 0.14 µg/mL
[1]; time 12 hour
  Dissolution amount: 8.59 ± 0.15 µg/mL
[1]; time 60 hour
  Dissolution amount: 8.63 ± 0.02 µg/mL
[2]; time 0 h
  Blood calcium concentration: 100%
[2]; time 0.25 h
  Blood calcium concentration: 81.7 ± 11.6%
[2]; time 0.5 h
  Blood calcium concentration: 74.6 ± 0.9%
[2]; time 1 h
  Blood calcium concentration: 81.1 ± 10.1%
[2]; time 2 h
  Blood calcium concentration: 79.5 ± 7.1%
[2]; time 4 h
  Blood calcium concentration: 96.7 ± 5.1%
[2]; time 6 h
  Blood calcium concentration: 99.1 ± 12.6%
[2]; time 8 h
  Blood calcium concentration: 102.1 ± 15.9%
[2]; time 12 h
  Blood calcium concentration: 104.3 ± 13.8%
[2]; time 24 h
  Blood calcium concentration: 110.9 ± 5.5%

## COc1ccc(/C=C/C(=O)Nc2ccccc2C(=O)O)cc1OC [Tranilast]
[3]
  bioavailability: 1.2%
  AUC(0-inf): 0.8 ± 0.4 µg·h/mL
  Cmax: 0.1 µg/mL
  Tmax: 1.8 ± 0.7 h
  half-life: 2.9 ± 0.7 h
